Results published in US20120022142A1, “RNA Interference Mediated Inhibition of Signal Transducer and Activator of Transcription 1 (STAT1) Gene Expression Using Short Interfering Nucleic Acid (siNA)” (Merck Sharp & Dohme Corp., priority 2009, published 2012).
[invAb] = inverted abasic unit; m = 2'-O-methyl; r = 2'-OH (RNA); f = 2'-fluoro

What was measured:
STAT1 mouse mRNA = assay: Initial screen of siNAs: STAT1 mRNA knock-down in NIH 3T3 cells (96-well transfection, Taqman RT-PCR); format: cell-based; settings: 10 nM siNA, 24 hrs, normalized against GAPDH, average of 2 experiments
Description: NIH 3T3 (mouse; ATCC cat# CRL-1658): Cells were cultured at 37° C. in the presence of 5% CO2 and grown in Dulbecco's modified Eagle's medium (DMEM) with 4 mM L-glutamine adjusted to contain 1.5 g/L sodium bicarbonate and 4.5 g/L glucose and supplemented with fetal bovine serum at a final concentration of 10%, 100 μg/mL of streptomycin, and 100 U/mL penicillin.
(§1) Cells were plated in all wells of a tissue-culture treated, 96-well plate at a final count of 5000 cells/well in 100 μL of the appropriate culture media. The cells were cultured for 24 hours after plating at 37° C. in the presence of 5% CO2.
(§2) After 24 hours, complexes containing siNA and RNAiMax were created as follows: A solution of RNAiMax diluted 33-fold in OPTI-MEM was prepared. In parallel, solutions of the siNAs for testing were prepared to a final concentration of 120 nM in OPTI-MEM. After incubation of RNAiMax/OPTI-MEM solution at room temperature for 5 min, an equal volume of the siNA solution and the RNAiMax solution were added together for each of the siNAs.
(§3) This solution was incubated at room temperature for 20 minutes. After incubation, 20 uL of the solution was added to each of the relevant wells. The final concentration of siNA in each well was 10 nM and the final volume of RNAiMax in each well was 0.3 ul.
(§4) The time of incubation with the RNAiMax-siNA complexes was 24 hours and there was no change in media between transfection and harvesting, unless otherwise indicated.
(§5) RNA was extracted from a 96-well plate using the TaqMan® Gene Expression Cells-to-CT™ Kit (Cat# 4399002) with a modified protocol. Briefly, a 60 uL (1 plate) or 110 uL (2 plates) of the Lysis Solution with DNase I was dispensed into each well of the Lysis Buffer Plate (twin.tec full skirt plate). The lysis buffer and stop plates were stored at 4° C. until the cells were washed.
(§6) The culture medium was aspirated and discarded from the wells of the culture plate. 50 uL of chilled DPBS was added to each well, then aspirated and discarded. The lysis was performed automatically using a BioMek FX instrument and method. After the Biomek method was completed, the lysis plate was incubated for 2 min at room temperature. The lysis plate can be stored for 2 hours at 4° C., or at −20° C. or −80° C. for two months.
(§7) Each well of the reverse transcription plate required 10 uL of 2× reverse transcriptase Buffer, 1 uL of 20× reverse transcription enzyme and 2 uL of nuclease-free water. The reverse transcription master mix was prepared by mixing 2× reverse transcription buffer, 20× reverse transcription enzyme mix, and nuclease-free water. 13 uL of the reverse transcription master mix was dispensed into each well of the reverse transcription plate (semi-skirted). A separate reverse transcription plate was prepared for each cell plate. The plate was loaded onto a Biomek NX or Biomek FX Dual-96 and the Biomek method was run. The program is programmed to automatically added 7 uL of lysate from the cell lysis procedure described above into each well of the reverse transcription plate. The plate is sealed and spun on a centrifuge (1000 rpm for 30 seconds) to settle the contents to the bottom of the reverse transcription plate. The plate is placed in a thermocycler at 37° C. for 60 min, 95° C. for 5 min, and 4° C. until the plate is removed from the thermocycler. Upon removal, if not used immediately, the plate was frozen at −20° C.
(§8) A series of probes and primers were used to detect the various mRNA transcripts of the genes of β-Actin (human cell line only), and of STAT1 and GAPDH in mouse and human cell lines. All Taqman probes and primers for the experiments here-in described were supplied as pre-validated sets by Applied Biosystems, Inc. (see Table 2).
The assays were performed on an ABI 7900 instrument, according to the manufacturer's instructions. […]

STAT1 human mRNA = assay: Initial screen of siNAs: STAT1 mRNA knock-down in A549 cells (96-well transfection, Taqman RT-PCR); format: cell-based; settings: 10 nM siNA, 24 hrs, normalized against GAPDH, average of 2 experiments
Description: A549 (human; ATCC cat# CCL-185): Cells were cultured at 37° C. in the presence of 5% CO2 and grown in Ham's F12K medium with 2 mM L-glutamine adjusted to contain 1.5 g/L sodium bicarbonate and supplemented with fetal bovine serum at a final concentration of 10% and 100 μg/mL of streptomycin and 100 U/mL penicillin.
as §1, §2, §3, §4, §5, §6, §7, §8
The assays were performed on an ABI 7900 instrument, according to the manufacturer's instructions.
Within each experiment, the baseline was set in the exponential phase of the amplification curve, and based on the intersection point of the baselines with the amplification curve, a Ct value was assigned by the instrument. […]

STAT3 mRNA = assay: Effect of STAT1 siRNAs on expression of STAT3 mRNA in A549 cells (quantitative RT-PCR); format: cell-based, human; settings: 1 nM siRNA, normalized to GAPDH
From the text: as §8
The levels of expression of STAT3 were normalized to the level of GAPDH. There was no significant effect (p>0.05) of treatment with any of the lead STAT1 siRNAs on the expression human or mouse STAT3 mRNA at 1 nM (10 to 100 times the IC50s of the siRNAs).

STAT1 mRNA = STAT1 mRNA level at 24, 48 and 72 hours post-transfection in A549 cells; format: cell-based, human; settings: STAT1 mRNA remaining vs control, A549, 30 nM; for mRNA 24 hr: 24 hr post-transfection; for mRNA 48 hr: 48 hr post-transfection; for mRNA 72 hr: 72 hr post-transfection
Description: A549 cells were plated in 6-well plates at final counts of 70,000 cells/well in 2 ml of complete growth media (Ham's F12, Cellgro Cat# 10-080-CV+10% FBS). Transfection was performed using 2.5 uL of RNAiMax (Invitrogen Cat# 13778-150) per well. Final concentration of siNAs was 30, 3, 0.3, 0.03, 0.003, and 0.0003 nM done in duplicate. The siNAs were incubated for 24-72 hours. The duplicate samples were pooled to prepare protein lysates and RNA using the “PARIS” Protein and RNA Isolation System from Ambion, Cat# 1921. The total protein in the lysates was measured using a Bradford Dye Reagent (Bio-Rad, Cat# 500-0205).SDS-PAGE/Western Blotting was performed on the on the protein samples and RT-PCR on the RNA samples.
as §8
An assessment of the level of mRNA at each timepoint was also made and protein samples from the treated cells were used in Western blots with an α-STAT1 antibody. (Clontech, Cat# 610185) and anti-Tubulin Ab (Sigma # T6199) in human A549 cells. Cells were transfected 24, 48 or 72 hours before harvesting total protein and the final concentration of siNAs was 30 nM. Lanes were loaded with 10 ug of total protein. Quantification was done of both the STAT1α and the STAT1β proteins together. All the siNAs tested reduced STAT1 protein at each of the tested timepoints, with the highest degree of protein reduction being observed at 72 hours post-transfection.

Substance	% KD Mouse (STAT1 mouse mRNA) [%]	% KD Human (STAT1 human mRNA) [%]	STAT3 % KD at 1 nM (STAT3 mRNA) [%]	mRNA 24 hr (STAT1 mRNA) [%]	mRNA 48 hr (STAT1 mRNA) [%]	mRNA 72 hr (STAT1 mRNA) [%]
25368-DC: STAT1 siNA duplex, human target site 782; modified strands SEQ ID NO: 73 and 74 (chain 1 GUAAAGUCAGAAAUGUGAATT; chain 2 UUCACAUUUCUGACUUUACUU; chain 1: DNA at AGT, 2'-fluoro at CU, [invAb] at 5' end, 3' end, backbone not given here; chain 2: sugars from the 5' end rrrmfmfffffmmffffmfmm, backbone not given here)	87	91	−2	3	3	3
25372-DC: STAT1 siNA duplex, human target site 968; modified strands SEQ ID NO: 81 and 82 (chain 1 UUGACAAUAAGAGAAAGGATT; chain 2 UCCUUUCUCUUAUUGUCAAUU; chain 1: DNA at AGT, 2'-fluoro at CU, [invAb] at 5' end, 3' end, backbone not given here; chain 2: sugars from the 5' end rrrffffffffmffmffmmmm, backbone not given here)	81	92	3	4	3	3
25369-DC: STAT1 siNA duplex, human target site 602; modified strands SEQ ID NO: 75 and 76 (chain 1 GGAAAAGCAAGCGUAAUCUTT; chain 2 AGAUUACGCUUGCUUUUCCUU; chain 1: DNA at AGT, 2'-fluoro at CU, [invAb] at 5' end, 3' end, backbone not given here; chain 2: sugars from the 5' end rrrffmfmfffmfffffffmm, backbone not given here)	66	92	−2	8	7	14
25367-DC: STAT1 siNA duplex, human target site 966; modified strands SEQ ID NO: 71 and 72 (chain 1 GCUUGACAAUAAGAGAAAGTT; chain 2 CUUUCUCUUAUUGUCAAGCUU; chain 1: DNA at AGT, 2'-fluoro at CU, [invAb] at 5' end, 3' end, backbone not given here; chain 2: sugars from the 5' end rrrffffffmffmffmmmfmm, backbone not given here)	82	91	12	3	2	2
25351-DC: STAT1 siNA duplex, human target site 2249; modified strands SEQ ID NO: 39 and 40 (chain 1 CCUACACGAAGAAAGAACUTT; chain 2 AGUUCUUUCUUCGUGUAGGUU; chain 1: DNA at AGT, 2'-fluoro at CU, [invAb] at 5' end, 3' end, backbone not given here; chain 2: sugars from the 5' end rrrfffffffffmfmfmmmmm, backbone not given here)	82	90	8	3	2	2
